# Results reported in PMC3536784, “Structural Characterization of Pandoraea pnomenusa B-356 Biphenyl Dioxygenase Reveals Features of Potent Polychlorinated Biphenyl-Degrading Enzymes” (PLoS ONE, 2013).
# Legend:
# [1] = target: T1, BPDOB356 (biphenyl dioxygenase, oxygenase component BphAE) (Comamonas testosteroni, UniProt Q46372); experiment: O2 consumption, Clark-type oxygen electrode; assay type: biochemical; settings: apparent; air-saturated 50 mM MES pH 6.0; NADH 123 µM; BphG B356 and BphF LB400 as electron transfer partners; Fe(II) added; partly uncoupled; read-out: 2,2′-Dichlorobiphenyl / Km /
# T1 construct: gene bphA; heterologously produced, purified anaerobically; heterohexamer (alpha-beta)3; Rieske [2Fe-2S] and mononuclear Fe(II); 18 N-terminal alpha residues disordered; with Biphenyl dioxygenase subunit beta
# Source text: O2 consumption, Clark-type oxygen electrode on BPDOB356 (biphenyl dioxygenase, oxygenase component BphAE)
# [2] = target: T2, BPDOB356 (biphenyl dioxygenase, oxygenase component BphAE) (Comamonas testosteroni, UniProt Q46372, M231T); experiment: O2 consumption, Clark-type oxygen electrode; settings: read-out: 2,2′-Dichlorobiphenyl / Km /; apparent; air-saturated 50 mM MES pH 6.0; NADH 123 µM; BphG B356 and BphF LB400 as electron transfer partners; Fe(II) added; partly uncoupled
# T2 construct: gene bphA
# [3] = target: T3, BPDOB356 (biphenyl dioxygenase, oxygenase component BphAE) (Comamonas testosteroni, UniProt Q46372, M231A); experiment: O2 consumption, Clark-type oxygen electrode; settings: read-out: 2,2′-Dichlorobiphenyl / Km /; apparent; air-saturated 50 mM MES pH 6.0; NADH 123 µM; BphG B356 and BphF LB400 as electron transfer partners; Fe(II) added; partly uncoupled
# T3 construct: gene bphA
# [4] = target: T1, BPDOB356 (biphenyl dioxygenase, oxygenase component BphAE); experiment: X-ray crystal structure of complex, […] Å; assay type: binding; settings: biphenyl powder soaked into crystals 24 h, anaerobic; MES pH 6.0; alpha-subunit active site near Fe(II)
# T1 sequence (Q46372 whole entry): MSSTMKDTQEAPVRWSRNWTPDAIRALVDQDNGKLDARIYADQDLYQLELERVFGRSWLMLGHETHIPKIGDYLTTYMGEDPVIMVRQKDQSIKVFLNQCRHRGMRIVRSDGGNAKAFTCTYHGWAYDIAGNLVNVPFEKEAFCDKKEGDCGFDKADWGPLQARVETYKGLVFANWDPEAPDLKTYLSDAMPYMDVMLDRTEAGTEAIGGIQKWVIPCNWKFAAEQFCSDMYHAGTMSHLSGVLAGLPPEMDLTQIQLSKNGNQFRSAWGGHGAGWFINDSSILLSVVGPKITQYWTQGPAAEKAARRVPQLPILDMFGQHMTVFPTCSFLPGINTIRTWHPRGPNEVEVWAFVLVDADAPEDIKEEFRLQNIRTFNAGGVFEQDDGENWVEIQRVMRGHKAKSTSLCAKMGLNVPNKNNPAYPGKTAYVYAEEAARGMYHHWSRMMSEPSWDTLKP
# T1 sequence (Q46373 whole entry partner): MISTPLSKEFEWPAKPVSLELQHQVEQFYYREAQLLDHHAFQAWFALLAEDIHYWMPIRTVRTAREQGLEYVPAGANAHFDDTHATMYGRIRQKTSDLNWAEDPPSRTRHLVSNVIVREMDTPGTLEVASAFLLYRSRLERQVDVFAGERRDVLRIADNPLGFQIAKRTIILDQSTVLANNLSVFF
# T2 sequence (Q46372 whole entry M231T): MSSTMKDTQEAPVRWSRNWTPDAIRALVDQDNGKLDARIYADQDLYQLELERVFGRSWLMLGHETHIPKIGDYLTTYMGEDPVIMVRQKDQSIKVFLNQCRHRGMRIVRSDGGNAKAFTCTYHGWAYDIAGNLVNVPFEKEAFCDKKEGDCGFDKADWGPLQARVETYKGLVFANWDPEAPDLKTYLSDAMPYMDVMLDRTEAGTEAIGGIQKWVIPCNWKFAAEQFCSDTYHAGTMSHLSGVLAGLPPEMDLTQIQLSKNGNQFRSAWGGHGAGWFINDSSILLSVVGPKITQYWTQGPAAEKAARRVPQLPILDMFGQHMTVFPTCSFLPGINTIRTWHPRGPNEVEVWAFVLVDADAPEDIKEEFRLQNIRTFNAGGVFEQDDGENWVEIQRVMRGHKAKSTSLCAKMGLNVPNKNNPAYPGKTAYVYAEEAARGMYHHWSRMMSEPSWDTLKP
# T2 sequence (Q46373 whole entry partner): as the sequence (Q46373 whole entry partner) above
# T3 sequence (Q46372 whole entry M231A): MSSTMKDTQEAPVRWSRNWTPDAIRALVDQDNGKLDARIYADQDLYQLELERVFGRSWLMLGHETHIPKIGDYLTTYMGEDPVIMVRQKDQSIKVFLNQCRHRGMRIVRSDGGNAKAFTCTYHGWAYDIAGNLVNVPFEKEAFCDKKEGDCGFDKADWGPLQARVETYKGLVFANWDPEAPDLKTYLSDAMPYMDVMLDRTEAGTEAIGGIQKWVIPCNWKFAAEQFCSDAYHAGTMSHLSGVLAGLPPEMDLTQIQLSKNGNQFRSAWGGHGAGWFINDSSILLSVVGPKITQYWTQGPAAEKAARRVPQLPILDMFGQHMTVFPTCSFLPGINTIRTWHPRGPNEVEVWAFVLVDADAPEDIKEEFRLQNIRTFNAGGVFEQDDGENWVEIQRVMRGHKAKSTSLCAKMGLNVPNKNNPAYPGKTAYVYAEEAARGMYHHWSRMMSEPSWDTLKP
# T3 sequence (Q46373 whole entry partner): as the sequence (Q46373 whole entry partner) above
Structure (SMILES),Km [1] [µM],Km [2] [µM],Km [3] [µM],"X-ray crystal structure of complex, 1.6 Å [4]"
"Clc1ccccc1-c1ccccc1Cl [2,2′-dichlorobiphenyl]",1.1,6.4,5.7,–
c1ccc(-c2ccccc2)cc1 [biphenyl],–,–,–,3GZY (BPDOB356) and 3GZX (BPDOB356•biphenyl complex)
